Experiments:
[1] = test system: ZR-75-30 (HER2/ErbB2 amp); assay: In vitro growth inhibition (GI50), ZR-75-30; type: cell-based; conditions: Homo sapiens
Text: (§1) Tumor cell line is an effective cell model for studying the inhibition of tumor cell growth or proliferation in vitro. In the present invention, a representative tumor cell line was selected to determine the cell growth inhibition activity of the present compound. All cell lines used were from ATCC, DSMZ, and the Cell Bank of the Chinese Academy of Sciences. Cell culture conditions and methods were in accordance with the requirements of each cell line. Cells were subcultured in vitro for no more than 3 passages each time, and as required, single-clone purification and identification of cell lines could be carried out.
(§2) The cell culture media used were RPMI1640 (Gibco), MEM (Gibco), McCOY'S5A (Gibco), and IMDM (Gibco). The complete medium was prepared by supplement with 5˜20% fetal calf serum (Gibco), 1% double-antibiotics (10000 units/mL penicillin and 10000 units/mL), 2 mM glutamine or 1 mM sodium pyruvate, respectively.
(§3) Human gastric cancer cell line NCI-N87 (HER2/ErbB2 amp, ATCC), human breast cancer cell line HCC1954 (HER2/ErbB2 amp, ATCC) and ZR-75-30 (HER2/ErbB2 amp, ATCC), human adenocarcinoma cell line AU565 (HER2/ErbB2 amp, ATCC), human lung squamous cell carcinoma cell line NCI-H2170 (HER2/ErbB2 amp, ATCC), human bronchioalveolar adenocarcinoma cell line NCI-H1781 (HER2/ErbB2 Ins G776V,C mutant type, ATCC) were cultured with a 1×RPMI1640 complete medium (10% FBS), respectively. Human lung adenocarcinoma cell line Calu-3 (HER2/ErbB2 amp, ATCC) was cultured with 1×MEM, 10% FBS, 1% double antibody, 1% NEAA (Gibco), 2 mM glutamine and 1 mM sodium pyruvate. The human breast cancer cell line SK-BR-3 (HER2/ErbB2 amp, ATCC) was cultured with a McCOY'S5A complete medium (10% FBS).
(§4) Adherent cells were digested with 0.25% pancreatin-EDTA (Gibco). The suspension cells were collected by centrifugation. The supernatant was discarded and the cell pellet was resuspended and counted. Different cell concentrations (5˜10×10^4 cells/mL) were prepared according to the growth cycle of each cell line and then seeded on a 96-well plate (Corning), 100 μL/well. The cells were incubated overnight at 37° C., 5% CO2. The compounds were added to the cells on the second day with 2 wells in parallel. The final concentration of organic solvent shall not exceed 1%. The cells were continually incubated for 3 to 5 days, and then subjected to MTT assay.
(§5) The compound of the present invention and the control compound were dissolved in DMSO (Sigma) respectively, with the purity of more than 98%. The compound was stored in a concentration of 10 mM at −20° C. and diluted to 2- or 10-fold series prior to use.
(§6) Dojindo CCK8 reagent kit was used as MTT assay. THERMO […] FC meter was used as microplate reader.
(§7) For adherent cells, culture medium was removed and immediately replaced with the fresh prepared medium which contains 10% CCK8 reagent (100 μL/well). For the suspension cells, CCK8 was directly added to 10% of the final concentration. The cells were continually incubated for 1˜4 h. When a dark yellow color could be observed in the solvent control wells, the absorbance value at OD450 nm was measured and the cell growth rate was calculated according to the following formula: Cell Growth Rate (%)=100*(T−T0)/(C−T0) T=optical density of drug treatment cell well—optical density of blank control well; T0=optical density of cell well before drug treatment—optical density of blank control well; C=optical density of cell well of solvent control group—optical density of blank control well. The concentration value of 50% inhibition of cell growth (GI50) was calculated according to the drug concentration and cell growth rate curve. The experiment was independently repeated 1˜3 times, and subject to biological statistical analysis. 4. Experimental Results
Tumor cell growth inhibition test was performed by selecting representative compounds (compounds 4, 11, 12, 16, 27, 68, 71, 77, 79, 89 and 116 of the present invention). […]

[2] = test system: A549 (KRAS G12S mutant type); assay: In vitro growth inhibition (GI50), A549; type: cell-based; conditions: Homo sapiens; A549, KRAS Gl2S
Text: as §1, §2
(§8) Human large cell lung cancer cell NCI-H460 (KRAS […] mutant type, ATCC), human non-small cell lung cancer cell line H1299 (NRAS Q61K mutant type, ATCC), human melanoma cell line A375 (BRAF V600E mutant type, Shanghai Cell Bank of Chinese Academy of Sciences), human colon cancer cell line HCT116 (KRAS G13D mutant type, Shanghai Cell Bank, Chinese Academy of Sciences) were cultured in a complete medium of 1×RPMI1640 (10% FBS), respectively. Human non-small cell lung cancer cells A549 (KRAS G12S mutant type, Shanghai Cell Bank, Chinese Academy of Sciences) were cultured in a complete medium of 1× Ham's supplemented with 10% FBS, 1% double antibody, and 2 mM glutamine.
as §4, §5, §6, §7
Tumor cell growth inhibition test was performed by selecting representative compounds (compounds 4, 11, 12, 16, 27, 68, 71, 77, 79, 89 and 116 of the present invention). The initial concentration of the compound was 5,000 nM, then it was serially diluted by 2-fold or 10-fold to 0.01 nM. […]

[3] = test system: tumor cells with abnormal expressions of EGFR, HER2/ERBB2, FGFR1, RAS, BRAF, cMET, and ALK genes; assay: In vitro growth inhibition of different tumor cells (summary over the panel); type: cell-based, human; conditions: GI50 value in the micro-molar range
Text: Human epidermal cancer cell line A431 (EGFR WT, amplification and high expression, from Shanghai Cell Bank of Chinese Academy of Sciences and ATCC), human lung cancer cell line NCI-H292 (EGFR WT, purchased from Shanghai Cell Bank of Chinese Academy of Sciences), NSCLC cell lines PC-9 and HCC827 (EGFR exon19 E746-A750 deletion, two cell lines are sensitive to the first-generation EGFR PTK inhibitor), NSCLC cell line NCI-H1975 (EGFR L858R/T790M and the first-generation EGFR inhibitor resistance, ATCC) were cultured with 1×RPMI1640 complete medium (supplement with 10% FBS), respectively.
as §3
The human gastric cancer cell line MKN-45 (c-MET amp, ATCC) and the non-small cell lung cancer cell line NCI-H1993 (c-MET amp, ATCC) were cultured in complete medium comprising 1×RPMI1640 and 10% FBS, respectively.
Human non-small cell lung cancer cell line NCI-H2228 (expressing EML4-ALK fusion gene, ATCC) and human anaplastic large cell lymphoma cell line Karpas-299 (expressing NPM-ALK fusion gene, ATCC) were cultured in complete medium comprising 1×RPMI1640 (10% FBS), respectively. Neuroblastoma cell line SH-SY5Y (expressing ALK F1174L mutant protein, Shanghai Cell Bank, Chinese Academy of Sciences) was cultured in MEM complete medium (1×MEM, 10% FBS, 1% NEAA, 1 mM sodium pyruvate).
Human non-small cell lung cancer cell NCI-H1581 (FGFR1 amp, ATCC) is an FGFR1 gene amplified/overexpressed tumor cell line. It was cultured in complete medium comprising 1×RPMI1640 with 10% FBS.
as §8, §4, §5
Dojindo CCK8 reagent kit was used as MTT assay. THERMO […] FC meter was used as microplate reader. […]

Row | Compound | GI50 [1] [nM] | GI50 [2] [nM] | inhibition effect on growth of tumor cells with abnormal expressions of EGFR, HER2/ERBB2, FGFR1, RAS, BRAF, cMET, and ALK genes [3]
1 | CC(C)(C)c1cc(NC(=O)Nc2ccc(-n3cnc4cc(OCCN5CCOCC5)ccc43)cc2)no1 [Compound 16, 1-(5-tert-butyl-isoxazol-3-yl)-3-{4-[5-(2-morpholin-4-yl-ethoxyl)-benzimidazol-1-yl]-phenyl}-urea] | > 2500 | > 2500 | no significant inhibition effect
2 | CC(C)(C)c1cc(N)n(C(=O)Nc2ccc(-n3cnc4ccccc43)cc2)n1 [Compound 116, 5-amino-3-tert-butyl-pyrazol-1-carboxylic acid (4-benzimidazol-1-yl-phenyl)-amide] | > 2500 | > 2500 | no significant inhibition effect
3 | CC(C)(C)c1cc(NC(=O)Nc2ccc(-n3cnc4cc(OCCO)ccc43)cc2)[nH]n1 [Compound 79, 1-(5-tert-butyl-2H-pyrazol-3-yl)-3-{4-[5-(2-hydroxy-ethoxyl)-benzimidazol-1-yl]-phenyl]urea] | > 2500 | > 2500 | –
4 | CC(C)(C)c1cc(NC(=O)Nc2ccc(-n3cnc4cc(OCCN5CCOCC5)ccc43)cc2)[nH]n1 [Compound 89, 1-(5-tert-butyl-2H-pyrazol-3-yl)-3-{4-[5-(2-morpholin-4-yl-ethoxyl)-benzimidazol-1-yl]-phenyl}-urea] | > 2500 | > 2500 | no significant inhibition effect
5 | COCCOc1ccc2c(c1)ncn2-c1ccc(NC(=O)Nc2cc(C(C)(C)C)n[nH]2)cc1 [Compound 77, 1-(5-tert-butyl-2H-pyrazol-3-yl)-3-{4-[5-(2-methoxyl-ethoxyl)-benzimidazol-1-yl]-phenyl}-urea] | > 2500 | > 2500 | no significant inhibition effect
6 | COc1ccc2c(c1)ncn2-c1ccc(NC(=O)Nc2cc(C(C)(C)C)n[nH]2)cc1 [Compound 71, 1-(5-tert-butyl-2H-pyrazol-3-yl)-3-[4-(5-methoxyl-benzimidazol-1-yl)-phenyl]-urea] | > 2500 | > 2500 | no significant inhibition effect
7 | CC(C)(C)c1cc(NC(=O)Nc2ccc(-n3cnc4ccccc43)cc2)[nH]n1 [Compound 68, 1-(4-benzimidazol-1-yl-phenyl)-3-(5-tert-butyl-2H-pyrazol-3-yl)-urea] | > 2500 | > 2500 | no significant inhibition effect
8 | CC(C)(C)c1cc(NC(=O)Nc2ccc(-n3cnc4ccc(OCCN5CCOCC5)cc43)cc2)no1 [Compound 27, 1-(5-tert-butyl-isoxazol-3-yl)-3-{4-[6-(2morpholin-4-yl-ethoxyl)-benzimidazol-1-yl]-phenyl}-urea] | > 2500 | > 2500 | no significant inhibition effect
9 | CC(C)(C)c1cc(NC(=O)Nc2ccc(-n3cnc4cc(O)ccc43)cc2)no1 [Compound 4, 1-(5-tert-butyl-isoxazol-3-yl)-3-[4-(5-hydroxy-benzimidazol-1-yl)-phenyl]-urea] | > 2500 | > 2500 | –
10 | CC(C)(C)c1cc(NC(=O)Nc2ccc(-n3cnc4cc(OCCO)ccc43)cc2)no1 [Compound 11, 1-(5-tert-butyl-isoxazol-3-yl)-3-{4-[5-(2-hydroxy-ethoxyl)-benzimidazol-1-yl]-phenyl]-urea] | > 2500 | > 2500 | –
